Patent publication US20060111848A1, “Identification and use of cofactor independent phosphoglycerate mutase as a drug target for pathogenic organisms and treatment of the same” (New England Biolabs, Inc., priority 2003, published 2006)

What was measured:
B. malayi iPGM = molecular target: T1, B. malayi iPGM (Brugia malayi, UniProt Q4VWF8); assay: PGM activity, spectrophotometric NADH-coupled assay, recombinant B. malayi iPGM; type: biochemical; details: recombinant enzyme
T1 construct: The full-length iPGMs from C. elegans, B. malayi and Wolbachia were overexpressed in E. coli; His tag (C); made in house; host or cells: E. coli ER2566
T1 sequence (Q4VWF8 whole entry): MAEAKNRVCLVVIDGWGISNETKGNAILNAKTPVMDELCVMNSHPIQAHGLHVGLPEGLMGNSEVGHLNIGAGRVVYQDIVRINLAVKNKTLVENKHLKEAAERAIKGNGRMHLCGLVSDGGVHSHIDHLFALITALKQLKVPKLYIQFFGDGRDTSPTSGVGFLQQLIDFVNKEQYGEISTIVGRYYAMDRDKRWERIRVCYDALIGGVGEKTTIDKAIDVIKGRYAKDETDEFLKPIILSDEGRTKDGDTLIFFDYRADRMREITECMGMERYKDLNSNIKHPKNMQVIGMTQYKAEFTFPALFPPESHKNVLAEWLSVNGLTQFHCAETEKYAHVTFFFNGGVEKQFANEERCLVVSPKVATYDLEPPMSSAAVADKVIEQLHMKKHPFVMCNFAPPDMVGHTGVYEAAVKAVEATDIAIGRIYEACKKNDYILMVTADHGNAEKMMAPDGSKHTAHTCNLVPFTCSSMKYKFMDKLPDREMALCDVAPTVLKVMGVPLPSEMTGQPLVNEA
Experimental: (§1) The purified CeiPGM, WoliPGM and BmiPGM proteins described in Example 4 were assayed for PGM activity and found to be active. Activity was measured in forward and reverse directions using a standard spectrophotometric assay (White and Fothergill-Gilmore, European J. Biochem. 207:709-714 1992)) as outlined in FIG. 9. In the forward reaction (glycolytic), the conversion of 3-PG to 2-PG is measured, whereas in the reverse direction (gluconeogenic), the conversion of 2-PG to 3-PG is assayed. In both cases, PGM activity was determined indirectly by measuring the consumption of NADH, which is monitored at 340 nm. The amount of NADH being oxidized to NAD corresponds to the amount of enzyme product (2-PG in the forward direction or 3-PG in the reverse direction) yielded in the PGM reaction. Reactions were performed at 30° C. for 5 minutes with data collected at 10-second intervals using a Beckman DU 640 spectrophotometer. In the forward reaction, iPGM was added to 1 ml assay buffer (30 mM Tris-HCl pH 7.0, 5 mM MgSO4, 20 mM KCl, 0.15 mM NADH) containing 1 mM ADP, 10 mM 3-PGA (Sigma P8877, Sigma-Aldrich, St. Louis, Mo.), 2.5 U each of enolase (Sigma E6126, EC 4.2.1.11, Sigma-Aldrich, St. Louis, Mo.), pyruvate kinase (Sigma P7768, EC 2.7.1.40, Sigma-Aldrich, St. Louis, Mo.) and lactate dehydrogenase (Sigma L2518; EC 1.1.1.27, Sigma-Aldrich, St. Louis, Mo.). […]

C. elegans iPGM = molecular target: T2, C. elegans iPGM (Caenorhabditis elegans, UniProt G5EFZ1); assay: PGM activity, spectrophotometric NADH-coupled assay, recombinant C. elegans iPGM; type: biochemical; details: recombinant enzyme
T2 construct: The full-length iPGMs from C. elegans, B. malayi and Wolbachia were overexpressed in E. coli; His tag (C); made in house; host or cells: E. coli ER2566
T2 sequence (G5EFZ1 1-521 isoform G5EFZ1-2): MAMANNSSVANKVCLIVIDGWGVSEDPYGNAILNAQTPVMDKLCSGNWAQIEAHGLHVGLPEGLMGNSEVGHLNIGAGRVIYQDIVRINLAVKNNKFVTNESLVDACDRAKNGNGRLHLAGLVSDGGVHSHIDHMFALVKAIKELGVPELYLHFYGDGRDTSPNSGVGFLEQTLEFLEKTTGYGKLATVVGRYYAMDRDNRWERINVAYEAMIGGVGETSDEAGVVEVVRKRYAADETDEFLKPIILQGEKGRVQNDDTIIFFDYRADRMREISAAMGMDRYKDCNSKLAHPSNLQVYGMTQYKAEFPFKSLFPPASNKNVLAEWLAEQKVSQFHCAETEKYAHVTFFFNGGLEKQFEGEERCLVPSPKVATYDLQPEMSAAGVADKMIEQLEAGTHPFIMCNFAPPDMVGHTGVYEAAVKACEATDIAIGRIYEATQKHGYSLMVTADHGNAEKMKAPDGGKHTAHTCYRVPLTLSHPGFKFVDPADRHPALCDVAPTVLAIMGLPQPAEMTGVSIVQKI
Experimental: as §1

Wolbachia iPGM = assay: PGM activity, spectrophotometric NADH-coupled assay, recombinant Wolbachia iPGM; type: biochemical; details: recombinant enzyme
Experimental: as §1

dPGM = details: cited from earlier work
iPGM = details: cited from earlier work

SMILES: [O]=[V]([O-])([O-])[O-] [vanadate]
- inhibition of PGM activity (B. malayi iPGM): not inhibited
- inhibition of PGM activity (C. elegans iPGM): not inhibited
- inhibition of PGM activity (Wolbachia iPGM): not inhibited
- effect on dPGM activity (dPGM): inhibited
- effect on iPGM activity (iPGM): insensitive
